From US20120301551A1, “COMPOUNDS AND COMPOSITIONS FOR TREATING NEURONAL DEATH OR NEUROLOGICAL DYSFUNCTION” (Neurotech Pharmaceuticals Co., Ltd., priority 2005, published 2012) come the findings set out here.

This assay deals with G93A transgenic mice. Description: oxidative stress in lumbar spinal motor neurons of G93A transgenic mice (nitrotyrosine, MitoTracker). The note with it: 30 mg/kg/d oral in diet from 8 weeks of age, at 10 weeks of age. The assay is classed as in vivo, mouse. The text has this: D: Fluorescent photomicrographs of the lumbar ventral section immunolabeled with nitrotyrosine antibody from the wild type (a), or ALS transgenic mice treated with vehicle (b), or 2-hydroxy TTBA for 2 weeks starting from at age of 8 weeks (c). Arrows indicate motor neurons (top panel). Levels of nitrotyrosine were quantitated, mean±SEM (n=15 sections from 3 mice per each condition (bottom panel). p<0.05 using ANOVA and Student-Newman-Keuls test.
E: Same as D except measurement of the fluorescence intensity of oxidized MT red CM-H2XRos. p<0.05 using ANOVA and Student-Newman-Keuls test.
G93A transgenic mice received oral administration of 2-hydroxy-TTBA (30 mg/kg/d) in the diet from 8 weeks of age. The oral administration of 2-Hydroxy-TTBA blocked nitrotyrosine, and mitochondrial free radical increased in the lumbar spinal motor neurons at 10 weeks of age compared to the wild type (FIGS. 5D & 5E). […] Thus, cell necrosis and Fas-mediated apoptosis induced in G93A mice can be prevented by oral administration of 2-hydroxy-TTBA and Li^+.

In the case of `O=C(O)c1cc(NCc2c(F)c(F)c(C(F)(F)F)c(F)c2F)ccc1O` [2-Hydroxy-TTBA, 2-hydroxy-5-(2,3,5,6-tetrafluoro-4-trifluoromethyl-benzylamino)-benzoic acid], the “nitrotyrosine and mitochondrial free radical increased in the lumbar spinal motor neurons” value is recorded as “blocked”.
